Results: patent publication US20250135012A1, “DENDRIMER CONJUGATES OF SMALL MOLECULE BIOLOGICS FOR INTRACELLULAR DELIVERY” (The Johns Hopkins University, priority 2021, published 2025)
Non-standard residues stand in square brackets, D forms with d. Residues, ends and D or L forms follow the SMILES beside them. Cya = N[C@@H](CS(=O)(=O)O)C(=O)O

Columns and labels:
[1] = test system: IL1β; assay: Choroid IL1β qPCR; type: in vivo, Brown Norway rats; settings: 7 and 14 days
Protocol: (§1) In brief, 500 μL of T-Per supplemented with PHOSSTOP® and proteinase inhibitor cocktail was added to tubes containing dissected choroid. A scoop of 1.6 mm steel homogenization beads was added to each sample and then placed in […]® LT (Qiagen) at an oscillation frequency of 50/s for 15 minutes. For qPCR, 200 μL of TRIZOL® was added to tubes containing choroid and a scoop of 1.6 mm steel homogenization beads was added. The samples were placed in […]® LT at an oscillation frequency of 50/s for 15 minutes.
(§2) 100 μL of chloroform was added to the Trizol suspension and the aqueous phase was separated with a centrifuge at 10K RPM at 4° C. for 15 minutes. 400 μL of 2-propanol was added to the aqueous solution and spun again to pellet the RNA. The RNA was washed with 70% ethanol solution, pelleted again, and re-suspended in DEPC (ultrapure treated to inactivated enzymes) water.
(§3) To convert RNA to complementary DNA, 2 μg of RNA was converted using a High-Capacity cDNA Reverse Transcription Kit (Applied Biosystems, Foster City, CA). Samples were analyzed using STEPONE PLUS® real-time PCR system (Applied Biosystems) with SYBR Green reagent (ThermoFisher Scientific). Relative expression was quantified with ΔΔCt calculations normalized to controls. Primers for GAPDH was obtained from Bio-Rad Laboratories (Hercules, CA). Primers were purchased from Integrated DNA Technologies (Coralville, IA). […]

[2] = test system: p44/42 ERK; assay: Choroid total ERK and phospho-p44/42 ERK ELISA; type: in vivo, Brown Norway rats
Protocol: as §1
(§4) To evaluate activation of FAK and ERK pathways, eyes were enucleated at set time points and the choroidal tissue dissected out. Tissues were submerged in a mixture of T-per, proteinase inhibitor, and PhosStop with stainless steel homogenization beads and homogenized to produce protein extracts. Total FAK, total ERK, p-FAK (Y397), and p-44/42 ERK ELISA kits were used to quantify the amount of total and phosphorylated proteins in FAK and ERK pathways. […] However, the level of total FAK protein in ALG-1001 treated animals was elevated at day 14.

[3] = test system: FAK; assay: Choroid total FAK and phospho-FAK (Y397) ELISA; type: in vivo, Brown Norway rats
Protocol: as §1
For protein extracted from tissues, total FAK and FAK (Phospho) [pY397] ELISA kits (Invitrogen) were used to quantify the level of protein expression and the measured protein expression was normalized to the total protein amount of each sample as determined from BCA assays.
as §4

[4] = test system: FAK; assay: Western blot, FAK and phospho-FAK in VEGF stimulated HUVEC; type: cell-based, human
Protocol: (§5) Cells were treated with D-ALG1001 and ALG-1001 for 24 h before activation with VEGF for 5 minutes. […] Cells were lysed with TRIZOL® and processed as previously described for qPCR analysis.
Concentration of protein was determined with the BCA protein assay kit (Thermo Scientific, Rockford, IL). Equal amount of protein was denatured and resolved on 4-15% TGX gels (Bio-Rad, Hercules, CA). Gels were transferred to nitrocellulose membranes, blocked with 3% Bovine Serum Albumin (“BSA”) at RT for 1 h, and probed for GAPDH, FAK, pFAK, MAPK, and pMAPK at 4° C. overnight. Membranes were washed thrice before incubation with HRP-conjugated secondary antibodies followed by incubation with chemiluminescent substrate for visualization.
To elucidate the mechanism through which D-ALG and ALG-1001 influence angiogenic function, cells were pre-treated with D-ALG and ALG-1001 for 24 h. The cells were then stimulated with a high dose of exogenous VEGF for 5 min after which the samples were collected for western blotting. The samples were probed for expression of total FAK, phospho-FAK (Y397), ERK1/2, phospho-ERK1/2, and Cyclophilin B (CycB) with CycB acting as the internal control.

[5] = test system: VEGF-A; assay: VEGF-A expression by VEGF stimulated endothelial cells; type: cell-based, human; settings: co-incubated with VEGF-A
Protocol: as §5
In addition to examining pathway activation, the effects of D-ALG and ALG-1001 were also studied on VEGF-A expression by endothelial cells.

[6] = test system: CNV area; assay: Biodistribution after systemic administration, laser CNV model; type: in vivo, Brown Norway rats; settings: systemic (intraperitoneal) administration, 150 μg
Protocol: For biodistribution studies, a dose of Cy5-D-ALG1001-Cy3 and ALG-1001-Cy3 at 150 μg/100 μL was administered to each animal intraperitoneally on the day of CNV induction (Day 0). Animals were sacrificed at 1-, 2-, 3-, and 4-day time points and enucleated.
After fixation, the posterior segment of the eye was dissected out and the retina separated from the choroid. Tissues stained with FITC-labeled isolectin (GS IB4) (Life Technologies, Eugene, OR) for blood vessels and monocytes. Eyes were mounted by introducing four radial relaxation cuts. Samples for biodistribution were imaged under a confocal 710 microscope (Carl Zeiss, Oberkochen, Germany). Samples for CNV quantification were imaged with an Axiovert phase contrast microscope. All images were processed with ImageJ.
Fluorescently labeled Cy3-ALG-1001 peptide and dual labeled Cy5-dendrimer-ALG-Cy3 were systemically injected on day 0 (same day as CNV induction) and choroidal tissues were collected at set time points. Confocal microscopy was used to monitor the presence of ALG-1001 peptide (Cy3), dendrimer carrier (Cy5), CNV formation (Isolectin), and macrophages (Iba1). […] In comparison, D-ALG was able to not only reach the CNV area within 24 h after systemic injection but also remain in the target area up to 4 days post administration from the co-localized presence of both Cy5 and Cy3 signals.

[7] = test system: VEGF-A; assay: Choroid VEGF-A qPCR; type: in vivo, Brown Norway rats; settings: 7 and 14 days
Protocol: as §1, §2, §3

[8] = test system: HUVEC cells; assay: HUVEC vessel formation assay on Matrigel; type: cell-based, human; settings: 1 mM
Protocol: 96 well plates were coated with 75 μL of […]® and left at room temperature for 15 minutes before placing into 37° C. incubators for an additional 30 minutes. D-ALG1001 was dissolved at twice the desired concentration and 50 μL of the drug solution was added to the wells. HUVEC cells were then added to each well at a density of 70,000 cells/cm^2. Live-cell images were taken at 12 h for analysis.
To find the effective dose in a physiologically relevant model, an in vitro model of blood vessel formation was utilized. HUVEC cells were treated with a gradient concentration of D-ALG and ALG-1001 for 24 h at three different magnitudes of doses. The cells were then seeded on […]® after which cells naturally migrate to form blood vessel-like tubule structures. The images were analyzed with Angiogenesis Analyzer plug-in on ImageJ to extract relevant metrics that measure the connectivity and integrity of tube networks (FIG. 16).

With `C[C@@H](O)[C@H](NC(=O)[C@H](CS(=O)(=O)O)NC(=O)CNC(=O)[C@H](CCCNC(=N)N)NC(=O)CN)C(=O)N1CCC[C@H]1C(=O)O` [ALG-1001] (H-GRG[Cya]TP-OH; N-terminus and C-terminus assumed) the “IL1β expression (qPCR)” value [1] was “only reduced at day 14”, the “total ERK” value ([2]; day 7) was “remained relatively constant” and the “total ERK” value ([2]; day 14, vs untreated animals) was “slight reduction”. The “phospho-p44/42 ERK” value ([2]; rat, in vivo) was “decrease of p44/42 ERK production”, the p-FAK protein ([3]; 7 and 14 days) was “reduction of p-FAK” and the “total FAK protein” value ([3]; day 14) was “elevated”. For the same compound, the “reduction of phospho-FAK” value ([4]; 1 mM on a peptide basis, vs VEGF stimulated controls) was 20%, the “total FAK and phospho-FAK expression” value ([4]; vs untreated VEGF stimulated controls) was “lower levels of total FAK and phosphor-FAK” and the “VEGF production compared to the control” value [5] was “did not have statistically significant increases”. The “time remaining in the CNV target area” value [6] was “up to 2 days”, the “VEGF-A production (qPCR)” value [7] was “lower VEGF-A production at 14 days only” and the tube formation [8] was “increased disruption in tube formation”.
